From publication PMC6979384, “Characterization of the plant homeodomain (PHD) reader family for their histone tail interactions” (Epigenetics & Chromatin, 2020)
Blank lines part the entries; values can stand above or below the substance they belong to. Where no end group is shown, it is not given here. [ ]: non-standard residue; d: D form. pS = N[C@@H](COP(=O)(O)O)C(=O)O

Assays:
Assay in all cases: Histone peptide microarray
Type in all cases: binding, human
AIRE (PP) = system: AIRE (PP)
Outline: (§1)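 Binding of recombinant GST-fused PHD readers (0.5 μM) is detected on an array of 293 histone peptides, modified singly or in combination. An optimized array protocol is followed, and each intensity is the average of quadruplicate measurements with standard deviation.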

BAZ2B = system: BAZ2B
Outline: as §1

BPTF (PB) = system: BPTF (PB)
Outline: as §1

CHD4 (PPCC) = system: CHD4 (PPCC)
Outline: as §1

CHD5 (PCC) = system: CHD5 (PCC)
Outline: as §1

CHD5 (PPCC) = system: CHD5 (PPCC)
Outline: as §1

DIDO1 = system: DIDO1
Outline: as §1

DPF2 (PPC2W2) = system: DPF2 (PPC2W2)
Outline: as §1

ING1 = system: ING1
Outline: as §1

ING2 = system: ING2
Outline: as §1

ING3 = system: ING3
Outline: as §1

ING4 = system: ING4
Outline: as §1

ING5 = system: ING5
Outline: as §1

KDM4C (TTP) = system: KDM4C (TTP)
Outline: as §1

KDM5A (1) = system: KDM5A (1)
Outline: as §1

KDM5A (3) = system: KDM5A (3)
Outline: as §1

KDM5B (1) = system: KDM5B (1)
Outline: as §1

KDM5B (3) = system: KDM5B (3)
Outline: as §1

KDM7A = system: KDM7A
Outline: as §1

MLL5 = system: MLL5
Outline: as §1

MORC3 (CW) = system: MORC3 (CW)
Outline: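 Binding read as mean relative signal from 4 replicates; microarray held 293 synthetic histone peptides with single or combinatorial PTMs. Each GST-tagged PHD reader was applied at 0.5 μM using the optimized Petell protocol.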

PHF13 = system: PHF13
Outline: as §1

PHF21A = system: PHF21A
Outline: as §1

PHF23 = system: PHF23
Outline: as §1

PHF2 = system: PHF2
Outline: as §1

PHF8 = system: PHF8
Outline: as §1

PHRF1 (RP) = system: PHRF1 (RP)
Outline: as §1

RAG2 = system: RAG2
Outline: as §1

SP140L = system: SP140L
Outline: as §1

TAF3 = system: TAF3
Outline: as §1

TRIM66 (PB) = system: TRIM66 (PB)
Outline: as §1

Substance: H3K9ac + K14ac + K18ac: H3 1-20
Array Heatmap signal (histone peptide microarray) (AIRE (PP); GST-tagged AIRE (PP), sheet Array Heatmap, each array performed twice, total n = 4): 0.4138
Array Heatmap signal (histone peptide microarray) (BAZ2B; GST-tagged BAZ2B, sheet Array Heatmap, each array performed twice, total n = 4): 0.6427
Array Heatmap signal (histone peptide microarray) (BPTF (PB); GST-tagged BPTF (PB = PHD + Bromodomain), sheet Array Heatmap, each array performed twice, total n = 4): 0.3483
Array Heatmap signal (histone peptide microarray) (CHD4 (PPCC); GST-tagged CHD4 (PPCC = Dual PHD + Dual Chromodomain), sheet Array Heatmap, each array performed twice, total n = 4): 0.6424
Array Heatmap signal (histone peptide microarray) (CHD5 (PCC); GST-tagged CHD5 (PCC = PHD + Dual Chromodomain), sheet Array Heatmap, each array performed twice, total n = 4): 0.8362
Array Heatmap signal (histone peptide microarray) (CHD5 (PPCC); GST-tagged CHD5 (PPCC = Dual PHD + Dual Chromodomain), sheet Array Heatmap, each array performed twice, total n = 4): 0.5238
Array Heatmap signal (histone peptide microarray) (DIDO1; GST-tagged DIDO1, sheet Array Heatmap, each array performed twice, total n = 4): 0.777
Array Heatmap signal (histone peptide microarray) (DPF2 (PPC2W2); GST-tagged DPF2 (PPC2W2 = Dual PHD + C2W2-type Zn-finger), sheet Array Heatmap, each array performed twice, total n = 4): 0.8971
Array Heatmap signal (histone peptide microarray) (ING1; GST-tagged ING1, sheet Array Heatmap, each array performed twice, total n = 4): 0.5813
Array Heatmap signal (histone peptide microarray) (ING2; GST-tagged ING2, sheet Array Heatmap, each array performed twice, total n = 4): 0.62
Array Heatmap signal (histone peptide microarray) (ING3; GST-tagged ING3, sheet Array Heatmap, each array performed twice, total n = 4): 0.4687
Array Heatmap signal (histone peptide microarray) (ING4; GST-tagged ING4, sheet Array Heatmap, each array performed twice, total n = 4): 0.4438
Array Heatmap signal (histone peptide microarray) (ING5; GST-tagged ING5, sheet Array Heatmap, each array performed twice, total n = 4): 0.3256
Array Heatmap signal (histone peptide microarray) (KDM4C (TTP); GST-tagged KDM4C (TTP = Tandem Tudor domain + PHD), sheet Array Heatmap, each array performed twice, total n = 4): 0.4368
Array Heatmap signal (histone peptide microarray) (KDM5A (1); GST-tagged KDM5A (1), sheet Array Heatmap, each array performed twice, total n = 4): 0.4668
Array Heatmap signal (histone peptide microarray) (KDM5A (3); GST-tagged KDM5A (3), sheet Array Heatmap, each array performed twice, total n = 4): 0.5902
Array Heatmap signal (histone peptide microarray) (KDM5B (1); GST-tagged KDM5B (1), sheet Array Heatmap, each array performed twice, total n = 4): 0.5879
Array Heatmap signal (histone peptide microarray) (KDM5B (3); GST-tagged KDM5B (3), sheet Array Heatmap, each array performed twice, total n = 4): 0.4869
Array Heatmap signal (histone peptide microarray) (KDM7A; GST-tagged KDM7A, sheet Array Heatmap, each array performed twice, total n = 4): 0.3112
Array Heatmap signal (histone peptide microarray) (MLL5; GST-tagged MLL5, sheet Array Heatmap, each array performed twice, total n = 4): 0.5367
Array Heatmap signal (histone peptide microarray) (MORC3 (CW); GST-tagged MORC3 (CW = CW-type Zn-finger), sheet Array Heatmap, each array performed twice, total n = 4): 0.5442
Array Heatmap signal (histone peptide microarray) (PHF13; GST-tagged PHF13, sheet Array Heatmap, each array performed twice, total n = 4): 0.5825
Array Heatmap signal (histone peptide microarray) (PHF21A; GST-tagged PHF21A, sheet Array Heatmap, each array performed twice, total n = 4): 0.4657
Array Heatmap signal (histone peptide microarray) (PHF23; GST-tagged PHF23, sheet Array Heatmap, each array performed twice, total n = 4): 0.5614
Array Heatmap signal (histone peptide microarray) (PHF2; GST-tagged PHF2, sheet Array Heatmap, each array performed twice, total n = 4): 0.5699
Array Heatmap signal (histone peptide microarray) (PHF8; GST-tagged PHF8, sheet Array Heatmap, each array performed twice, total n = 4): 0.3679
Array Heatmap signal (histone peptide microarray) (PHRF1 (RP); GST-tagged PHRF1 (RP), sheet Array Heatmap, each array performed twice, total n = 4): 0.8654
Array Heatmap signal (histone peptide microarray) (RAG2; GST-tagged RAG2, sheet Array Heatmap, each array performed twice, total n = 4): 0.2782
Array Heatmap signal (histone peptide microarray) (SP140L; GST-tagged SP140L, sheet Array Heatmap, each array performed twice, total n = 4): 0.346
Array Heatmap signal (histone peptide microarray) (TAF3; GST-tagged TAF3, sheet Array Heatmap, each array performed twice, total n = 4): 0.2816
Array Heatmap signal (histone peptide microarray) (TRIM66 (PB); GST-tagged TRIM66 (PB = PHD + Bromodomain), sheet Array Heatmap, each array performed twice, total n = 4): 0.7029

Array Heatmap value (peptide array binding signal) (AIRE (PP); AIRE (PP), GST-tagged, arrays performed twice, n of 4): 0.5219
Array Heatmap value (peptide array binding signal) (BAZ2B; BAZ2B, GST-tagged, arrays performed twice, n of 4): 0.5073
Array Heatmap value (peptide array binding signal) (BPTF (PB); BPTF (PB), GST-tagged, arrays performed twice, n of 4): 0.3554
Array Heatmap value (peptide array binding signal) (CHD4 (PPCC); CHD4 (PPCC), GST-tagged, arrays performed twice, n of 4): 0.5526
Array Heatmap value (peptide array binding signal) (CHD5 (PCC); CHD5 (PCC), GST-tagged, arrays performed twice, n of 4): 0.7872
Array Heatmap value (peptide array binding signal) (CHD5 (PPCC); CHD5 (PPCC), GST-tagged, arrays performed twice, n of 4): 0.5731
Array Heatmap value (peptide array binding signal) (DIDO1; DIDO1, GST-tagged, arrays performed twice, n of 4): 0.6489
Array Heatmap value (peptide array binding signal) (DPF2 (PPC2W2); DPF2 (PPC2W2), GST-tagged, arrays performed twice, n of 4): 0.653
Array Heatmap value (peptide array binding signal) (ING1; ING1, GST-tagged, arrays performed twice, n of 4): 0.495
Array Heatmap value (peptide array binding signal) (ING2; ING2, GST-tagged, arrays performed twice, n of 4): 0.5973
Array Heatmap value (peptide array binding signal) (ING3; ING3, GST-tagged, arrays performed twice, n of 4): 0.4704
Array Heatmap value (peptide array binding signal) (ING4; ING4, GST-tagged, arrays performed twice, n of 4): 0.4783
Array Heatmap value (peptide array binding signal) (ING5; ING5, GST-tagged, arrays performed twice, n of 4): 0.3847
Array Heatmap value (peptide array binding signal) (KDM4C (TTP); KDM4C (TTP), GST-tagged, arrays performed twice, n of 4): 0.5256
Array Heatmap value (peptide array binding signal) (KDM5A (1); KDM5A (1), GST-tagged, arrays performed twice, n of 4): 0.5265
Array Heatmap value (peptide array binding signal) (KDM5A (3); KDM5A (3), GST-tagged, arrays performed twice, n of 4): 0.4478
Array Heatmap value (peptide array binding signal) (KDM5B (1); KDM5B (1), GST-tagged, arrays performed twice, n of 4): 0.697
Array Heatmap value (peptide array binding signal) (KDM5B (3); KDM5B (3), GST-tagged, arrays performed twice, n of 4): 0.5358
Array Heatmap value (peptide array binding signal) (KDM7A; KDM7A, GST-tagged, arrays performed twice, n of 4): 0.4369
Array Heatmap value (peptide array binding signal) (MLL5; MLL5, GST-tagged, arrays performed twice, n of 4): 0.5137
Array Heatmap value (peptide array binding signal) (MORC3 (CW); MORC3 (CW), GST-tagged, arrays performed twice, n of 4): 0.3885
Array Heatmap value (peptide array binding signal) (PHF13; PHF13, GST-tagged, arrays performed twice, n of 4): 0.6185
Array Heatmap value (peptide array binding signal) (PHF21A; PHF21A, GST-tagged, arrays performed twice, n of 4): 0.4613
Array Heatmap value (peptide array binding signal) (PHF23; PHF23, GST-tagged, arrays performed twice, n of 4): 0.5395
Array Heatmap value (peptide array binding signal) (PHF2; PHF2, GST-tagged, arrays performed twice, n of 4): 0.4467
Array Heatmap value (peptide array binding signal) (PHF8; PHF8, GST-tagged, arrays performed twice, n of 4): 0.3729
Array Heatmap value (peptide array binding signal) (PHRF1 (RP); PHRF1 (RP), GST-tagged, arrays performed twice, n of 4): 0.411
Array Heatmap value (peptide array binding signal) (RAG2; RAG2, GST-tagged, arrays performed twice, n of 4): 0.2586
Array Heatmap value (peptide array binding signal) (SP140L; SP140L, GST-tagged, arrays performed twice, n of 4): 0.363
Array Heatmap value (peptide array binding signal) (TAF3; TAF3, GST-tagged, arrays performed twice, n of 4): 0.2793
Array Heatmap value (peptide array binding signal) (TRIM66 (PB); TRIM66 (PB), GST-tagged, arrays performed twice, n of 4): 0.5363
Substance: H2AX (S139p): H2AX 132-142 (GKKATQA[pS]QEY; UniProt P16104 133-143, looked up, fragment)
